Measured values published in US11370785B2, “Multicyclic compounds as farnesoid X receptor modulators” (BRISTOL-MYERS SQUIBB COMPANY, priority 2017, dated 2022).

biological target: T1, human FXR (Homo sapiens, UniProt Q96RI1); assay: transient human FXR/Gal4-luciferase reporter assay; type: cell-based; conditions: Gal4-hFXR reporter in HEK293 cells; read-out: HLE GAL-FXR EC50
T1 construct: expressed in transfected cells; host or cells: HEK293 cells stably carrying a 5xGal4-response-element firefly luciferase reporter, transiently transfected with the pcDNA3.1-Gal4-FXR plasmid
T1 sequence (Q96RI1 262-486 limits assumed): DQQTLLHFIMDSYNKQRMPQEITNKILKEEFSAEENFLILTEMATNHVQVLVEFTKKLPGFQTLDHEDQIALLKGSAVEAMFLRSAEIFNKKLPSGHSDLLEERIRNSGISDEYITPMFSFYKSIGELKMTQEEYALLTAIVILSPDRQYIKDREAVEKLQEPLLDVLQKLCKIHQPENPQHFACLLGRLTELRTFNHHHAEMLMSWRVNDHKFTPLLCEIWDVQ
Procedure: The exemplified compounds of the present invention were tested in the transient human FXR/Gal4-luciferase reporter assay, and assay results were reported in Table 1 together with other analytical data.
A Gal4-hFXR fusion construct reporter system was used as the primary assay to characterize compound activity. A construct including 5 copies of the Gal4 promoter response element upstream of a firefly luciferase reporter cDNA was stably expressed in HEK293 cells. This reporter cell line was maintained in Dulbecco's Modified Eagle's medium (DMEM; Gibco) supplemented with 1% penicillin-streptomycin (P/S) solution, 500 μg/mL Zeocin and 10% charcoal/dextran-treated fetal bovine serum (cs-FBS) at 37° C. in a humidified 5% CO2 atmosphere. Another plasmid was constructed in which the human cytomegalovirus promoter in the pcDNA3.1 vector directs the expression of the cDNA encoding a fusion protein comprised of the DNA binding domain from the Gal4 transcription factor fused to the ligand binding domain from human FXR.
The day prior to transfection, the reporter cells in culture are detached from the plate with trypsin and plated into a T75 flask at a sufficient density to achieve approximately 90% confluence the next morning. The transfection reagents are prepared by separately diluting 25 μg of the pcDNA3.1-Gal4-FXR plasmid into 1.87 mL of Opti-MEM (Thermo-Fisher), and 40 μL of Lipofectamine 2000 (Thermo-Fisher) into 1.87 mL of Opti-MEM, and then adding the diluted DNA solution into the diluted Lipofectamine 2000 solution and incubating at room temperature for 15-20 minutes. The mixture is further diluted with 10 mL of a solution comprised of DMEM, 10% cs-FBS, and 1% P/S immediately prior to transferring to the cells. The maintenance culture media is aspirated from the cells and the final transfection mixture is added before the cells are incubated overnight at 37° C. in a humidified 5% CO2 atmosphere. This protocol can be scaled up, and the transiently transfected cells can be cryopreserved in an assay-ready format.
For compound testing, 100 nL of the compounds (serial dilutions in DMSO) are dispensed with an Echo acoustic dispenser (Labcyte) into the wells of a Corning/Costar clear bottom 384-well white plate. The transfected cells are harvested, counted, and diluted such that 10-25,000 cells in 25 μL are plated into each well of the 384-well compound assay plate. The compound-treated cells are incubated overnight at 37° C. in a humidified 5% CO2 atmosphere. The next morning 25 μL of Steady-Glo (Promega) are added to each well of the plate, the mixture is incubated for 15 min. with shaking, and luminescence is measured on an Envision (Perkin Elmer) plate reader. Background counts from cells treated with DMSO alone are subtracted from all raw counts, and the corrected values are converted to a percentage of the control response attained with 8 μM GW-4064.

EC50	SMILES
47 nM	O=C(O)c1ccc2cc(N3CCC4(CC3)CC(=Cc3c(-c5c(Cl)cccc5Cl)noc3C3CC3)C4)ccc2n1 [Example 2, 6-(2-((5-Cyclopropyl-3-(2,6-dichlorophenyl)isoxazol-4-yl)methylene)-7-azaspiro[3.5]nonan-7-yl)quinoline-2-carboxylic acid]
959 nM	O=C(O)c1cccc(CN2CCC3(CC2)CC(=Cc2c(-c4c(Cl)cccc4Cl)noc2C2CC2)C3)c1 [Example 9, 3-((2-((5-Cyclopropyl-3-(2,6-dichlorophenyl)isoxazol-4-yl)methylene)-7-azaspiro[3.5]nonan-7-yl)methyl)benzoic acid]

same assay, conditions: Gal4-hFXR reporter in HEK293 cells; relative to 8 μM GW-4064; read-out: FXR EC50

EC50	SMILES
26 nM	O=C(O)c1cc(C(F)(F)F)c2cc(N3CCC4(CC3)CC(=Cc3c(-c5c(Cl)cncc5Cl)noc3C(F)(F)F)C4)ccc2n1 [Example 153]
189 nM	CCOc1cc(C(N)=O)ncc1N1CCC2(CC1)CC(=Cc1c(-c3ccccc3C(F)(F)F)noc1C1CC1)C2 [Example 142]
677 nM	CN(C)C(=O)c1cc(F)c2nc(N3CCC4(CC3)CC(=Cc3c(-c5c(Cl)cncc5Cl)noc3C(F)(F)F)C4)sc2c1 [Example 192]
9 nM	Cn1cc(C(=O)O)c2ccc(N3CCC4(CC3)CC(=Cc3c(-c5c(Cl)cccc5Cl)noc3C3CC3)C4)cc21 [Example 24]
1500 nM	COc1cc([N+](=O)[O-])ccc1S(=O)(=O)N1CCC2(CC1)CC(Cc1c(-c3c(Cl)cccc3Cl)noc1C1CC1)C2 [Example 175]
1820 nM	O=C(O)c1ccc(N2CCC3(CC2)CC(Nc2c(-c4c(Cl)cccc4Cl)noc2C2CC2)C3)nn1 [Example 15]
1200 nM	N#Cc1cnc(N2CCC3(CC2)CC(Cc2c(-c4c(Cl)cccc4Cl)noc2C2CC2)C3)s1 [Example 170]
19 nM	COCCn1cc(C(=O)O)c2ccc(N3CCC4(CC3)CC(=Cc3c(-c5c(Cl)cccc5Cl)noc3C3CC3)C4)cc21 [Example 57]
10 nM	O=C(O)c1cc(OC(F)F)c2cc(N3CCC4(CC3)CC(=Cc3c(-c5ccccc5C(F)(F)F)noc3C3CC3)C4)ccc2n1 [Example 86]
51 nM	CCN(CC)C(=O)c1cc(OC2CCC2)c2cc(N3CCC4(CC3)CC(Cc3c(-c5ccccc5C(F)(F)F)noc3C3CC3)C4)ccc2n1 [Example 183]
53 nM	O=C(O)c1ccc2cc(N3CCC4(CC3)CC(=Cc3c(-c5c(Cl)cccc5Cl)noc3C3CC3)C4)ccc2c1 [Example 47]
1670 nM	O=C(O)c1ncc(N2CCC3(CC2)CC(Cc2c(-c4ccccc4C(F)(F)F)noc2C2CC2)C3)cc1C(F)(F)F [Example 156]
78 nM	O=C(O)c1cc(OC2COC2)c2cc(N3CCC4(CC3)CC(=Cc3c(-c5ccccc5C(F)(F)F)noc3C3CC3)C4)ccc2n1 [Example 137]
33 nM	O=C(O)c1cc(OC2CCC2)c2cc(N3CCC4(CC3)CC(Cc3c(-c5ccccc5C(F)(F)F)noc3C3CC3)C4)ccc2n1 [Example 109]
305 nM	Cn1cc(C(=O)O)c2cnc(N3CCC4(CC3)CC(Nc3c(-c5c(Cl)cccc5Cl)noc3C3CC3)C4)nc21 [Example 19]
5280 nM	O=C(O)c1ccc(N2CCC3(CC2)CC(=Cc2c(C4CC4)nnn2-c2c(Cl)cccc2Cl)C3)nc1 [Example 21]
53 nM	Cc1cc(C(=O)O)cc2sc(N3CCC4(CC3)CC(=Cc3c(-c5c(Cl)cncc5Cl)noc3C3CC3)C4)nc12 [Example 89]
252 nM	Cc1cc(C(=O)O)cc2sc(N3CCC4(CC3)CC(=Cc3c(C5CC5)nnn3-c3c(Cl)cccc3Cl)C4)nc12 [Example 20]
1370 nM	O=C(NC1CC1)c1cc(OC2CCC2)c2cc(N3CCC4(CC3)CC(Cc3c(-c5ccccc5C(F)(F)F)noc3C3CC3)C4)ccc2n1 [Example 173]
1080 nM	Clc1cccc(Cl)c1-c1noc(C2CC2)c1C=C1CC2(CCN(c3cccc(-c4nn[nH]n4)c3)CC2)C1 [Example 51]
327 nM	CCOc1cc(C(N)=O)ncc1N1CCC2(CC1)CC(Cc1c(-c3ccccc3C(F)(F)F)noc1C1CC1)C2 [Example 144]
840 nM	CC(=O)Nc1ncc(S(=O)(=O)N2CCC3(CC2)CC(Cc2c(-c4c(Cl)cccc4Cl)noc2C2CC2)C3)s1 [Example 176]
